Patent US4533553A, “Polycyclic ether antibiotic” (priority 1983, dated 1985)

Experiments:
solubility = format: physicochemical
[1] = system: Gram-positive microorganisms; assay: inhibitory action against growth of Gram-positive microorganisms; format: cell-based; settings: in vitro
Method: (§1) In Table I, below, the results of in vitro MIC tests are summarized. For this test each organism is inoculated in a series of test tubes containing nutrient medium and varying concentrations of Compound 53,607 to determine the minimal concentration of the antibiotic in mcg/ml which inhibits the growth of the organism over a period of 24 hours (MIC).

[2] = system: coccidial infections in poultry; assay: activity against coccidial infections in poultry; format: in vivo
Method: (§2) Efficacy data for Antibiotic Compound 53,607 and its salts against coccidial infections in chickens was obtained in the following fashion. Groups of 3-5 ten-day old SPF white leghorn cockerel chicks were fed a mash diet containing Antibiotic Compound 53,607 or its sodium and/or potassium salt uniformly dispersed therein. After being on this ration for 24 hours each chick was inoculated per os with oocysts of the particular species of Eimeria being tested. Other groups of 3-5 ten-day old chicks were fed a similar mash diet free of Antibiotic Compound 53,607 or its salts. They were also infected after 24 hours and served as infected controls. Yet other groups of 3-5 ten-day old chicks were fed the mash diet free of Antibiotic Compound 53,607 and were not infected with coccidia. These served as normal controls. The results of treatment were evaluated after five days in the case of E. acervulina, and six days for all other challenges.

rumen fluid = assay: in vitro rumen technique, propionic acid production; set-up: species or system cow; settings: for increase in propionic acid: comparison with Salinomycin
Method: The value of animal feeds generally has been determined directly by feeding the animal. British Patent Specification No. 1,197,826 details an in vitro rumen technique whereby the changes occurring in feeds brought about by microorganisms are measured more readily and with great accuracy in the evaluation of animal feeds. This technique involves the use of an apparatus in which the digestive processes of the animals are conducted and studied in vitro. The animal feeds, rumen inoculum and various growth promotants are introduced into and withdrawn from a laboratory unit under carefully controlled conditions and the changes taken place are studied critically and progressively during the consumption of the feed by the microorganisms. […] The change in propionic acid content is expressed as percent of the propionic acid content found in the control rumen fluid. Long term in vivo feeding studies are used to show a reliable correlation between propionic acid increase in the rumen fluid and improved animal performance.
Rumen fluid is collected from a fistulated cow which is fed on a commercial fattening ration plus hay. The rumen fluid is immediately filtered through cheese cloth, and 10 ml added to a 50 ml conical flask containing 400 mg. of standard substrate (68% corn starch+17% cellulose+15% extracted soybean meal), 10 ml. of a pH 6.8 buffer and the test compound. The flasks are gassed with oxygen free nitrogen for about two minutes, and incubated in a shaking water bath at 39° C. for about 16 hours. All tests are conducted in triplicate.
After incubation, 5 ml. of the sample is mixed with 1 ml. of 25% metaphosphoric acid. After 10 minutes 0.25 ml. of formic acid is added and the mixture centrifuged at 1,500 r.p.m. for 10 minutes. Samples are then analyzed by gas-liquid chromatograhy by the method of D. W. Kellog, J. Dairy Science, 52, 1690 (1969). Peak heights for acetic, propionic and butyric acids are determined for samples from untreated and treated incubation flasks.

Eimeria tenella = assay: efficacy against coccidial infections in chickens; format: in vivo; settings: for Average degree of Infection: lesion score 0 to 4
Method: as §2
(§3) ^1 The criteria used to measure anticoccidial activity consisted of
(§4) lesion scores of 0 to 4 for E. tenella after J. E. Lynch "A New Method fo
(§5) the Primary Evaluation of Anticoccidial Activity." , Am. J. Vet. Res.
(§6) 22:324-326 (1961); and 0 to 3 for the other species based on modification
(§7) of the scoring system devised by J. Johnson and W. H. Reid, "Anticoccidia
(§8) drugs. Lesion Scoring Techniques in Battery and Floor Pen Experiments in
(§9) Chicks.", Exp. Parasit. 28: 30-36(1970). A constant ratio was established
(§10) by dividing the lesion score of each treated group by the lesion score of […]

Eimeria acervulina = assay: efficacy against coccidial infections in chickens; format: in vivo; settings: for Weight Gain / Average degree of Infection: five days; for Average degree of Infection: lesion score 0 to 3; for Ratio: lesion score treated / infected control
Method: as §2, §3, §4, §5, §6, §7, §8, §9, §10

Eimeria necatrix = assay: efficacy against coccidial infections in chickens; format: in vivo; settings: for Average degree of Infection: lesion score 0 to 3; for Average degree of Infection / Weight Gain: six days; for Ratio: lesion score treated / infected control
Method: as §2, §3, §4, §5, §6, §7, §8, §9, §10

Eimeria maxima = assay: efficacy against coccidial infections in chickens; format: in vivo; settings: for Average degree of Infection: lesion score 0 to 3; for Average degree of Infection / Weight Gain: six days; for Ratio: lesion score treated / infected control
Method: as §2, §3, §4, §5, §6, §7, §8, §9, §10

Eimeria brunetti = assay: efficacy against coccidial infections in chickens; format: in vivo; settings: for Average degree of Infection: lesion score 0 to 3; for Average degree of Infection / Weight Gain: six days; for Ratio: lesion score treated / infected control
Method: as §2, §3, §4, §5, §6, §7, §8, §9, §10

Serratia marcescens = assay: in vitro MIC test; format: cell-based; settings: 24 h
Method: as §1

Escherischia coli = assay: in vitro MIC test; format: cell-based; settings: 24 h
Method: as §1

[3] = system: Enterobacteriacese aerogenes; assay: in vitro MIC test; format: cell-based; settings: 24 h
Method: as §1

Klebsiella pneumoniae = assay: in vitro MIC test; format: cell-based; settings: 24 h
Method: as §1

Pseudomonas aeruginosa = assay: in vitro MIC test; format: cell-based; settings: 24 h
Method: as §1

[4] = 25 ppm in diet, value in parentheses (not explained)
[5] = 50 ppm in diet, value in parentheses (not explained)
[6] = 100 ppm in diet, value in parentheses (not explained)

Structure (SMILES): CC(=CC(C)C1OC2(CCC(C)(C3CCC(C)C4(OC(C5OC(O)(CO)C(C)CC5C)CC4C)O3)O2)CC(O)C1C)C(=O)C(C)CC(C)C(=O)O (stereo not drawn) [Antibiotic Compound 53,607]
- solubility in chloroform (solubility; chloroform): soluble
- solubility in ethyl acetate (solubility; ethyl acetate): soluble
- solubility in methanol (solubility; methanol): soluble
- solubility in methylisobutyl ketone (solubility; methylisobutyl ketone): soluble
- solubility in water (solubility; water): insoluble
- inhibitory action against growth [1]: exhibits inhibitory action
- activity against coccidial infections in poultry [2]: excellent activity
- increase in propionic acid (rumen fluid; 5 μg./ml.): about 40%
- increase in propionic acid (rumen fluid; 20 μg./ml.): about 43%
- increase in the production of propionic acid over control (rumen fluid; 20 micrograms per milliliter, first comparison (with Monensin)): about 57%
- Average degree of Infection (Eimeria tenella; 25 ppm in diet, six days): 3.0
- Ratio (Eimeria tenella; 25 ppm in diet, lesion score treated / infected control): 0.95
- Weight Gain (Eimeria tenella; 25 ppm in diet, six days): 47%
- Ratio (Eimeria tenella; [4]): 0.49
- Weight Gain (Eimeria tenella; [4]): 102%
- Average degree of Infection (Eimeria tenella; [4]): 1.7
- Average degree of Infection (Eimeria tenella; 50 ppm in diet, six days): 2.7
- Ratio (Eimeria tenella; 50 ppm in diet, lesion score treated / infected control): 0.86
- Weight Gain (Eimeria tenella; 50 ppm in diet, six days): 22%
- Ratio (Eimeria tenella; [5]): 0.09
- Weight Gain (Eimeria tenella; [5]): 97%
- Average degree of Infection (Eimeria tenella; [5]): 0.3
- Average degree of Infection (Eimeria tenella; 100 ppm in diet, six days): 1.0
- Ratio (Eimeria tenella; 100 ppm in diet, lesion score treated / infected control): 0.32
- Weight Gain (Eimeria tenella; 100 ppm in diet, six days): 57%
- Ratio (Eimeria tenella; [6]): 0.37
- Weight Gain (Eimeria tenella; [6]): 60%
- Average degree of Infection (Eimeria tenella; [6]): 1.3
- Average degree of Infection (Eimeria tenella; 200 ppm in diet, six days): 1.3
- Ratio (Eimeria tenella; 200 ppm in diet, lesion score treated / infected control): 0.41
- Weight Gain (Eimeria tenella; 200 ppm in diet, six days): 37%
- controlling infections (Eimeria tenella; chickens, diet, 50 to 200 ppm): effective in controlling infections
- Weight Gain (Eimeria acervulina; 25 ppm in diet): 7%
- Average degree of Infection (Eimeria acervulina; 25 ppm in diet): 2.0
- Ratio (Eimeria acervulina; 25 ppm in diet): 1.00
- Weight Gain (Eimeria acervulina; 50 ppm in diet): 18%
- Average degree of Infection (Eimeria acervulina; 50 ppm in diet): 2.0
- Ratio (Eimeria acervulina; 50 ppm in diet): 1.00
- Weight Gain (Eimeria acervulina; 100 ppm in diet): 22%
- Average degree of Infection (Eimeria acervulina; 100 ppm in diet): 1.2
- Ratio (Eimeria acervulina; 100 ppm in diet): 0.60
- Weight Gain (Eimeria acervulina; 200 ppm in diet): 2%
- Average degree of Infection (Eimeria acervulina; 200 ppm in diet): 1.5
- Ratio (Eimeria acervulina; 200 ppm in diet): 0.75
- controlling infections (Eimeria acervulina; chickens, diet, 50 to 200 ppm): effective in controlling infections
- Average degree of Infection (Eimeria necatrix; 25 ppm in diet): 0.6
- Ratio (Eimeria necatrix; 25 ppm in diet): 0.33
- Weight Gain (Eimeria necatrix; 25 ppm in diet): 111%
- Average degree of Infection (Eimeria necatrix; 50 ppm in diet): 0.2
- Ratio (Eimeria necatrix; 50 ppm in diet): 0.11
- Weight Gain (Eimeria necatrix; 50 ppm in diet): 99%
- Average degree of Infection (Eimeria necatrix; 100 ppm in diet): 0.0
- Ratio (Eimeria necatrix; 100 ppm in diet): 0.00
- Weight Gain (Eimeria necatrix; 100 ppm in diet): 69%
- controlling infections (Eimeria necatrix; chickens, diet, 50 to 200 ppm): effective in controlling infections
- Average degree of Infection (Eimeria maxima; 25 ppm in diet): 1.4
- Ratio (Eimeria maxima; 25 ppm in diet): 0.88
- Weight Gain (Eimeria maxima; 25 ppm in diet): 51%
- Average degree of Infection (Eimeria maxima; 50 ppm in diet): 1.0
- Ratio (Eimeria maxima; 50 ppm in diet): 0.63
- Weight Gain (Eimeria maxima; 50 ppm in diet): 70%
- Average degree of Infection (Eimeria maxima; 100 ppm in diet): 0.8
- Ratio (Eimeria maxima; 100 ppm in diet): 0.50
- Weight Gain (Eimeria maxima; 100 ppm in diet): 37%
- Average degree of Infection (Eimeria maxima; 200 ppm in diet): 1.5
- Ratio (Eimeria maxima; 200 ppm in diet): 0.94
- Weight Gain (Eimeria maxima; 200 ppm in diet): 10%
- controlling infections (Eimeria maxima; chickens, diet, 50 to 200 ppm): effective in controlling infections
- Average degree of Infection (Eimeria brunetti; 25 ppm in diet): 2.6
- Ratio (Eimeria brunetti; 25 ppm in diet): 1.44
- Weight Gain (Eimeria brunetti; 25 ppm in diet): 47%
- Average degree of Infection (Eimeria brunetti; 50 ppm in diet): 1.0
- Ratio (Eimeria brunetti; 50 ppm in diet): 0.55
- Weight Gain (Eimeria brunetti; 50 ppm in diet): 49%
- Average degree of Infection (Eimeria brunetti; 100 ppm in diet): 0.4
- Ratio (Eimeria brunetti; 100 ppm in diet): 0.22
- Weight Gain (Eimeria brunetti; 100 ppm in diet): 47%
- controlling infections (Eimeria brunetti; chickens, diet, 50 to 200 ppm): effective in controlling infections
- MIC (Serratia marcescens): > 50 µg/mL
- MIC (Escherischia coli): > 50 µg/mL
- MIC [3]: > 50 µg/mL
- MIC (Klebsiella pneumoniae): > 50 µg/mL
- MIC (Pseudomonas aeruginosa): > 50 µg/mL

Structure (SMILES): CC[C@@H](C(=O)[C@@H](C)[C@@H](O)[C@H](C)[C@@H]1O[C@@H]([C@@H](CC)C(=O)O)CC[C@@H]1C)[C@H]1O[C@]2(C=C[C@@H](O)[C@]3(CC[C@@](C)([C@H]4CC[C@](O)(CC)[C@H](C)O4)O3)O2)[C@H](C)C[C@@H]1C [Salinomycin, reference compound]
- increase in propionic acid (rumen fluid; 5 μg./ml.): about 52%
